Assays:
MKN-45 = assay: Cytotoxicity against human MKN45 cell line by methylene blue dye assay; type: functional, cell-based
KB [1] = assay: Cytotoxicity against human KB cell line by methylene blue dye assay; type: functional, cell-based
TSGH 9201 = assay: Cytotoxicity against human TSGH cell line by methylene blue dye assay; type: functional, cell-based
HT-29 = assay: Cytotoxicity against human HT29 cell line by methylene blue dye assay; type: functional, cell-based
KB [2] = assay: Cytotoxicity against KB-VIN 10 cell line by methylene blue dye assay; type: functional, cell-based; conditions: Homo sapiens
NCI-H460 = assay: Cytotoxicity against human H460 cell line by methylene blue dye assay; type: functional, cell-based
Tubulin (Homo sapiens) [3] = biological target: T1, Tubulin (Homo sapiens) (UniProt P68371+Q9H4B7+P0DPH7+P68366+Q13509+Q71U36+P04350+Q3ZCM7+P07437+P68363+Q9BQE3+Q6PEY2+Q13885+Q9BVA1+Q9BUF5); assay: Inhibition of [3H]colchicine binding to tubulin at 5 uM; type: protein-complex assay
Tubulin = assay: Inhibition of tubulin polymerization; type: functional, Homo sapiens
Tubulin (Homo sapiens) [4] = biological target: T1, Tubulin (Homo sapiens); assay: Inhibition of [3H]colchicine binding to tubulin at 1 uM; type: protein-complex assay

inhibition (Tubulin (Homo sapiens) [3]) | IC50 (Tubulin) | inhibition (Tubulin (Homo sapiens) [4]) | Structure (SMILES) | IC50 (MKN-45) | IC50 (KB [1]) | IC50 (TSGH 9201) | IC50 (HT-29) | IC50 (KB [2]) | IC50 (NCI-H460)
– | – | – | COc1ccc(S(=O)(=O)N2CCc3cccc(N)c32)cc1 | 1200 nM | 2800 nM | – | – | – | –
93% | 1500 nM | 65% | COc1ccc(S(=O)(=O)N2CCc3cccc(NC(=O)c4ccc(F)cc4)c32)cc1 | 45 nM | 93 nM | 100 nM | 55 nM | 85 nM | 95 nM
– | – | – | COc1ccc(S(=O)(=O)N2CCc3cccc(NC(=O)N(C)c4ccccc4)c32)cc1 | > 10000 nM | > 10000 nM | – | – | – | –
– | – | – | COc1ccc(S(=O)(=O)N2CCc3cccc(NC(=O)C(C)(C)C)c32)cc1 | 289 nM | 359 nM | – | – | – | –
– | > 5000 nM | – | COc1ccc(S(=O)(=O)N2CCc3cccc(NCc4ccccc4)c32)cc1 | > 10000 nM | > 10000 nM | > 10000 nM | > 10000 nM | > 10000 nM | > 10000 nM
– | – | – | COc1ccc(S(=O)(=O)N2CCc3cccc(NC(=O)c4ccccc4)c32)cc1 | 250 nM | 297 nM | 201 nM | 192 nM | 180 nM | 257 nM
96% | 1100 nM | 78% | COc1ccc(S(=O)(=O)N2CCc3cccc(NC(=O)c4ccncc4)c32)cc1 | 8.8 nM | 9.6 nM | 10.8 nM | 8.6 nM | 8.9 nM | 9.4 nM
– | – | – | COc1ccc(S(=O)(=O)N2CCc3cccc(NS(=O)(=O)c4ccc([N+](=O)[O-])cc4)c32)cc1 | 933 nM | 1100 nM | – | – | – | –
– | – | – | COc1ccc(S(=O)(=O)N2CCc3cccc(NS(=O)(=O)c4ccccc4)c32)cc1 | 562 nM | 650 nM | – | – | – | –
– | – | – | COc1ccc(S(=O)(=O)N2CCc3cc(Br)cc(NC(=O)c4ccncc4)c32)cc1 | 86 nM | 91 nM | – | – | – | –
91% | 1900 nM | 62% | COc1ccc(S(=O)(=O)N2CCc3cccc(NC(=O)c4ccc([N+](=O)[O-])cc4)c32)cc1 | 95 nM | 102 nM | 116 nM | 65 nM | 95 nM | 122 nM
– | – | – | COc1ccc(C(=O)Nc2cccc3c2N(S(=O)(=O)c2ccc(OC)cc2)CC3)cc1 | 1600 nM | 2600 nM | – | – | – | –
– | – | – | COc1ccc(S(=O)(=O)N2CCc3cccc(NC(=O)c4ccc(C#N)cc4)c32)cc1 | 89 nM | 105 nM | – | – | – | –
– | – | – | COc1ccc(S(=O)(=O)N2CCc3cccc(NC(=O)Oc4ccccc4)c32)cc1 | > 10000 nM | > 10000 nM | – | – | – | –
– | – | – | COc1ccc(S(=O)(=O)N2CCc3cc(Br)cc(NC(=O)c4ccco4)c32)cc1 | 78 nM | 89 nM | – | – | – | –
– | – | – | COC(=O)c1ccc(C(=O)Nc2cccc3c2N(S(=O)(=O)c2ccc(OC)cc2)CC3)cc1 | 312 nM | 376 nM | – | – | – | –
86% | 1900 nM | 57% | COc1ccc(S(=O)(=O)N2CCc3cccc(NC(C)=O)c32)cc1 | 61 nM | 89 nM | 103 nM | 51 nM | 90 nM | 75 nM
94% | 1700 nM | 75% | COc1ccc(S(=O)(=O)N2CCc3cccc(NC(=O)c4cccs4)c32)cc1 | 31 nM | 47 nM | 54 nM | 37 nM | 43 nM | 49 nM
– | – | – | COc1cc2c(c(OC)c1OC)-c1ccc(OC)c(=O)cc1[C@@H](NC(C)=O)CC2 [COLCHICINE] | 15 nM | 13.3 nM | – | – | 117 nM | –
95% | 1200 nM | 74% | COc1ccc(S(=O)(=O)N2CCc3cccc(NC(=O)c4ccco4)c32)cc1 | 10.7 nM | 9.6 nM | 11.1 nM | 9.5 nM | 9.2 nM | 9.8 nM
– | – | – | COc1ccc(S(=O)(=O)N2CCc3cccc(NS(=O)(=O)c4ccc(F)cc4)c32)cc1 | 890 nM | 1200 nM | – | – | – | –

Source: ChEMBL document CHEMBL1137315, “7-Aroyl-aminoindoline-1-sulfonamides as a novel class of potent antitubulin agents” (J Med Chem, 2006)
